Test results published in patent publication US9341618B2, “Method for evaluating or screening hair growth-regulating agent” (Kao Corporation, priority 2007, dated 2016).
Like-named read-outs stand apart in the source and are kept apart here.

B1: TGF-β2: TGF-β2 (R & D Systems, Inc., item No. 102-B2-001/CF), confirmed to suppress hair growth in human hair follicle organ culture (protein, UniProt P61812 303-414, looked up)
Transforming growth factor …: ALDAAYCFRNVQDNCCLRPLYIDFKRDLGWKWIHEPKGYNANFCAGACPYLWSSDTQHSRVLSLYNTINPEASASPCCVSQDLEPLTILYYIGKTPKIEQLSNMIVKSCKCS

Columns and labels:
hair follicles of a pig = conditions: DHT 10 ng/mL; for Hair elongation quantity (control regarded as 100%): 6th day of organ culture, William's E medium
Experimental: As a pig skin, a skin obtained from a crossbred pig with white hair which has been bred as a pork pig in Japan was used. The pig skin was cut into an appropriate size, the extra fat was cut away, and the resulting skin was soaked in a Hibiten solution (5% Hibiten solution (Sumitomo Pharmaceuticals) was diluted to 5 to 20 times with water) for 5 to 10 minutes under sterile conditions for sterilization and then washed several times with D-PBS.
Then hair follicles were isolated from the treated pig skin using forceps and scalpel (FEATHER No. 10) under a stereo microscope and collected in a medium.
According to the procedures (1), hair follicles of a pig were obtained from the dorsal region, lateral region, abdominal region, inguinal region, buttocks and shoulder of the pig. The isolated hair follicles were placed in a 24-well culture plate to give one hair follicle per well.
Incubation was carried out at 37° C. for 6 days in an incubator containing 5% of CO2.
The medium was exchanged every two days or every three days, and a hair elongation quantity after 6 days incubation was measured and compared with that of control.
For the control, William's E medium not containing DHT was used, and a hair elongation quantity after the organ culture was regarded as 100%.
Incidentally, a hair elongation quantity was measured, regarding the date on which incubation was commenced as the 0th day, by taking stereo microscopic images with a CCD camera (pixera model No. PVC 100C) at the 0th day and the 6th day, and measuring the change of the length from the base of hairbulb to the tip of hair shaft based on the images.

[1] = system: hair follicles at the buttocks of a pig; experiment: Organ culture of pig buttocks hair follicles in RPMI1640 medium (hair elongation); type: cell-based; conditions: TGF-β2 10 ng/mL, 8th day of organ culture in RPMI1640 medium
Experimental: The hair follicles were incubated at 37° C. for 8 days in an incubator containing 5% of CO2.

[2] = system: hair follicles of a human; conditions: literature; cited from earlier work
[3] = abdominal region hair follicles

Molecule | Growth of hair follicles, effect in words (hair follicles of a pig; [3]) | Hair elongation quantity (control regarded as 100%) (hair follicles of a pig; [3]) | Hair elongation quantity (control regarded as 100%) (hair follicles of a pig; buttocks hair follicles) | Growth of hair follicles, effect in words (hair follicles of a pig; dorsal region hair follicles) | Hair elongation quantity (control regarded as 100%) (hair follicles of a pig; dorsal region hair follicles) | Hair elongation quantity (control regarded as 100%) (hair follicles of a pig; inguinal region hair follicles) | Hair elongation quantity (control regarded as 100%) (hair follicles of a pig; lateral region hair follicles) | Hair elongation quantity (control regarded as 100%) (hair follicles of a pig; shoulder hair follicles) | Hair elongation rate (%) when that of control is regarded as 100% [1] | Effect on hair growth in organ culture [2]
C[C@]12CCC(=O)C[C@@H]1CC[C@@H]1[C@@H]2CC[C@]2(C)[C@@H](O)CC[C@@H]12 [DHT, 5α-dihydrotestosterone] | suppressed | 75% | 102% | promoted | 179% | 102% | 108% | 99% |  | 
B1 |  |  |  |  |  |  |  |  | 59% | confirmed to suppress hair growth
